Measurements reported in US7807704B2, “Bicyclic, nitrogen-containing compounds modulating CXCR4 and/or CCXCKR2” (Chemocentryx, Inc., priority 2006, dated 2010).

Biological target: T1, CXCR4 (Homo sapiens, UniProt P61073)
T1 construct: all endogenously expressing CXCR4; endogenous in cells; host or cells: CEM-Nkr, CCRF-CEM, Jurkat, Molt-4; IL-2 stimulated human lymphocytes
Test: chemotaxis assay or 125I SDF-1α binding assay for CXCR4
Conditions: first or only activity listed, read-out: CXCR4 activity (IC50 class)
Description: CEM-Nkr, CCRF-CEM (ATCC #CCL-119), Jurkat (ATCC #TIB-152), Molt-4 (ATCC# CRL-1582), cell lines, all endogenously expressing CXCR4, were used in compound screening and subsequent assays. These cell lines were cultured as a suspension in RPMI-1640 medium supplemented with 2 mM L-glutamine, 1.5 g/L sodium bicarbonate, 4.5 g/L glucose, 10 mM HEPES, 1 mM sodium pyruvate, and 10% FBS. Cells were grown under 5% CO2/95% air, 100% humidity at 37° C. and subcultured twice weekly at 1:6 (cells were cultured at a density range of 1×10^5 to 2×10^6 cells/mL) and harvested at 1×10^6 cells/mL. • b) Isolated Human IL-2 Stimulated Lymphocytes
Cells were centrifuged and resuspended in assay buffer (20 mM HEPES pH 7.1, 140 mM NaCl, 1 mM CaCl2, 5 mM MgCl2, and with 0.2% bovine serum albumin) to a concentration of 4×10^6 cells/mL for cell lines. Binding assays were set up as follows. […] Then 0.1 mL of ^125I labeled SDF-1α (obtained from Perkin Elmer Life Sciences, Boston, Mass.) diluted in assay buffer to a final concentration of ˜50 pM, yielding ˜30,000 cpm per well, was added, the plates sealed and incubated for approximately 3 hours at 4° C. on a shaker platform. Reactions were aspirated onto GF/B glass filters pre-soaked in 0.3% polyethyleneimine (PEI) solution, on a vacuum cell harvester (Packard Instruments; Meriden, Conn.). Scintillation fluid (40 μl; Microscint 20, Packard Instruments) was added to each well, the plates were sealed and radioactivity measured in a Topcount scintillation counter (Packard Instruments). Control wells containing either diluent only (for total counts) or excess SDF1 a (1 μg/mL, for non-specific binding) were used to calculate the percent of total inhibition for compound. The computer program Prism from GraphPad, Inc. (San Diego, Calif.) was used to calculate IC50 values. IC50 values are those concentrations required to reduce the binding of radiolabeled SDF-1α to the receptor by 50%. (For further descriptions of ligand binding and other functional assays, see Dairaghi, et al., J. Biol. Chem. 274:21569-21574 (1999), Penfold, et al., Proc. Natl. Acad. Sci. USA. 96:9839-9844 (1999), and Dairaghi, et al., J. Biol. Chem. 272:28206-28209 (1997)).
Chemotaxis assays were performed using 5 μm pore polycarbonate, polyvinylpyrrolidone-coated filters in 96-well chemotaxis chambers (Neuroprobe; Gaithersburg, Md.) using chemotaxis buffer (Hank's balanced salt solution (HBSS) and 1% FBS). CXCR4 ligand (i.e., SDF1a, R&D Systems; Minneapolis, Minn.) are use to evaluate compound mediated inhibition of CXCR4 mediated migration. Other chemokines (i.e., TECK; R&D Systems; Minneapolis, Minn.) are used as specificity controls. The lower chamber was loaded with 29 μl of chemokine (i.e., 0.1 nM SDF1a); the top chamber contained 50,000 Jurkat cells or IL-2 lymphocytes in 20 μl. The chambers were incubated 2 hours at 37° C., and the number of cells in the lower chamber quantified either by direct cell counts in five high powered fields per well or by the CyQuant assay (Molecular Probes), a fluorescent dye method that measures nucleic acid content and microscopic observation.
To evaluate small organic molecules that prevent the CXCR4 from binding ligand, an assay was employed that detected radioactive ligand (i.e, SDF-1) binding to cells expressing CXCR4 on the cell surface (for example, CEM-Nkr cells). For compounds that inhibited binding, whether competitive or not, fewer radioactive counts are observed when compared to uninhibited controls.
Equal numbers of cells were added to each well in the plate. The cells were then incubated with radiolabeled […]. Unbound ligand was removed by washing the cells, and bound ligand was determined by quantifying radioactive counts. Cells that were incubated without any organic compound gave total counts; non-specific binding was determined by incubating the cells with unlabeled ligand and labeled ligand. Percent inhibition was determined by the equation: […]

T1 sequence (P61073 whole entry): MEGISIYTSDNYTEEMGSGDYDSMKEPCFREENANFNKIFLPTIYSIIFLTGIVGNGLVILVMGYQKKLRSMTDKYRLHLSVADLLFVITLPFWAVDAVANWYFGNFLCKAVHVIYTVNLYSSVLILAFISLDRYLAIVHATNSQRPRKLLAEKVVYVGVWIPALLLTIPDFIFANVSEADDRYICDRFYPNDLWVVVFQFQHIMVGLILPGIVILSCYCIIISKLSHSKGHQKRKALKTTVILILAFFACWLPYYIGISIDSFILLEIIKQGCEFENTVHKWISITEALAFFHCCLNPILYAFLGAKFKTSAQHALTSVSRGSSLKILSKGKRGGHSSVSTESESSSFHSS

SMILES	IC50 [nM]
CN(CCCNC(=O)Cn1ccc2cccc(-c3ccc(F)cc3)c21)C1CCCCC1 [No 1]	< 1000
CN(CCNC(=O)Cn1ncc2ccccc21)C1CCCCC1 [No 2]	> 10000
CC(C)c1ccc(-c2ccc3ccn(CC(=O)NCCN4CCCC5CCCCC54)c3c2)cc1 (centres unmarked) [No 3]	< 1000
O=C(Cn1ccc2cccc(-c3ccc(F)cc3)c21)NCCN1CCCC2CCCCC21 (centres unmarked) [No 4]	< 1000
CN(CCNC(=O)Cn1ncc2c1CCCC2)C1CCCCC1 [No 6]	> 10000
CN(CCNC(=O)Cn1cnc2ncccc21)C1CCCCC1 [No 7]	1000 to 10000
CN(CCNC(=O)Cn1ccc2cccc([N+](=O)[O-])c21)C1CCCCC1 [No 8]	< 1000
Cc1ccc2c(c1)ncn2CC(=O)NCCN(C)C1CCCCC1 [No 9]	< 1000
CN(CCNC(=O)Cn1cc2ccccc2n1)C1CCCCC1 [No 10]	1000 to 10000
Cc1ccc(-c2ccc3ccn(CC(=O)NCCN4CCCCC4)c3c2)cc1 [No 11]	< 1000
Cc1ccc(-c2ccc3oc(=O)n(CC(=O)NCCN(C)C4CCCCC4)c3c2)cc1 [No 12]	< 1000
Cc1ccc(-c2ccc3ccn(CC(=O)NCCNC4CCOC4)c3c2)cc1 (centres unmarked) [No 13]	1000 to 10000
Cc1ccc(-c2ccc3cc(C(=O)O)n(CC(=O)NCCN(C)C4CCCCC4)c3c2)cc1 [No 14]	< 1000
Cc1ccc(-c2ccc3ccn(CC(=O)NC(C)(C)CN4CCCC4)c3c2)cc1 [No 15]	1000 to 10000
Cc1ccc(-c2ccc3c(C4=CCCC=C4)nn(CC(=O)NCCN(C)C4CCCCC4)c3c2)cc1 [No 16]	1000 to 10000
COc1cc(-c2ccc(C)cc2)cc2c1ccn2CC(=O)NCCN(C)C1CCCCC1 [No 17]	< 1000
CN(CCNC(=O)Cn1cnc2c(F)c(F)ccc21)C1CCCCC1 [No 18]	< 1000
CN(CCNC(=O)Cn1cnc2c1CCOC2)C1CCCCC1 [No 19]	> 10000
CN(CCNC(=O)Cc1c[nH]c2ccccc12)C1CCCCC1 [No 20]	1000 to 10000
CN(CCNC(=O)Cn1nc(Cl)c2ccccc21)C1CCCCC1 [No 21]	1000 to 10000
CN(CCNC(=O)Cn1ccc2ccc(-c3ccccc3)cc21)C1CCCCC1 [No 22]	< 1000
CN(CCNC(=O)Cn1ccc2ccc(-c3ccc(C(F)(F)F)cc3)cc21)C1CCCCC1 [No 25]	< 1000
CN(CCNC(=O)Cn1ccc2ccc(-c3ccc(Cl)cc3)cc21)C1CCCCC1 [No 29]	< 1000
Cc1ccccc1-c1ccc2ccn(CC(=O)NCCN(C)C3CCCCC3)c2c1 [No 30]	1000 to 10000
CN(CCNC(=O)Cn1ccc2ccc(-c3cnc4ccccc4c3)cc21)C1CCCCC1 [No 36]	< 1000
CN(CCNC(=O)Cn1ccc2ccc(-c3cc4ccccc4o3)cc21)C1CCCCC1 [No 37]	< 1000
CCc1ccc(-c2ccc3ccn(CC(=O)NCCN(C)C4CCCCC4)c3c2)cc1 [No 38]	< 1000

SMILES	IC50 [nM]
Cc1cccc(-c2ccc3ccn(CC(=O)NCCN(C)C4CCCCC4)c3c2)c1 [No 39]	< 1000
CN(CCNC(=O)Cn1ccc2ccc(-c3ccncc3)cc21)C1CCCCC1 [No 40]	< 1000
Cc1ccc(-c2ccc3c(ccn3CC(=O)NCCN(C)C3CCCCC3)c2)cc1 [No 41]	< 1000
CN(CCNC(=O)Cn1ccc2cc(-c3ccc(F)cc3)ccc21)C1CCCCC1 [No 42]	< 1000
Cc1ccc(-c2cccc3c2ccn3CC(=O)NCCN(C)C2CCCCC2)cc1 [No 43]	< 1000
Cc1ccc(-c2ccc3ccn(CC(=O)NCCN4CCC[C@@H]5CCCC[C@H]54)c3c2)cc1 [No 44]	< 1000
C=Cc1ccc(-c2ccc3ccn(CC(=O)NCCN(C)C4CCCCC4)c3c2)cc1 [No 45]	< 1000
Cc1ccc(-c2ccc3ccn(CC(=O)NCCN(C)C4CCCCC4)c3c2)cc1C [No 46]	< 1000
Cc1ccc(-c2ccc3ccn(CC(=O)NCCN(C)C4CCCCC4)c3c2)c(F)c1 [No 47]	< 1000
Cc1ccc(-c2ccc3ccn(CC(=O)NCCN(C)C4CCCCC4)c3c2)cc1F [No 48]	< 1000
Cc1ccc(-c2ccc3cnn(CC(=O)NCCN(C)C4CCCCC4)c3c2)cc1 [No 49]	< 1000
CN(CCNC(=O)Cn1ccc2ccc(-c3ccc(C(N)=O)cc3)cc21)C1CCCCC1 [No 50]	< 1000
Cc1ccc(-c2ccc3ccn(CC(=O)NCCN(C)C4CCCC4)c3c2)cc1 [No 51]	< 1000
Cc1ccc(-c2ccc3ccn(CC(=O)NCCN4CCCC4)c3c2)cc1 [No 52]	< 1000
Cc1ccc(-c2ccc3ccn(CC(=O)NCCN4CCCCC4C)c3c2)cc1 (centres unmarked) [No 53]	< 1000
Cc1ccc(-c2ccc3ccn(CC(=O)NCCN4CCCCCC4)c3c2)cc1 [No 54]	< 1000
CCN(CCNC(=O)Cn1ccc2ccc(-c3ccc(C)cc3)cc21)C1CCCCC1 [No 55]	< 1000
Cc1ccc(-c2ccc3ccn(CC(=O)NCCN4CCC(C)CC4)c3c2)cc1 [No 56]	< 1000
CN(CCNC(=O)Cn1ccc2ccc(-c3ccc(C#N)cc3)cc21)C1CCCCC1 [No 57]	< 1000
COC(=O)c1cc2ccc(-c3ccc(C)cc3)cc2n1CC(=O)NCCN(C)C1CCCCC1 [No 58]	< 1000
Cc1ccc(-c2ccc3ccn(CC(=O)NC(C)CN4CCCC4)c3c2)cc1 (centres unmarked) [No 59]	< 1000
Cc1ccc(-c2ccc3ncn(CC(=O)NCCN(C)C4CCCCC4)c3c2)cc1 [No 60]	< 1000
Cc1ccc(-c2ccc3ccn(CC(=O)NCC(C)N4CCCC4)c3c2)cc1 (centres unmarked) [No 61]	< 1000
CN(C)c1ccc(-c2ccc3ccn(CC(=O)NCCN(C)C4CCCCC4)c3c2)cc1 [No 62]	< 1000
Cc1ccc(-c2ccc3ccn(CC(=O)NCCN4CCCC(C)(C)C4)c3c2)cc1 [No 63]	< 1000
Cc1ccc(-c2ccc3ccn(CC(=O)NCCN4CC(C)CC(C)C4)c3c2)cc1 (centres unmarked) [No 64]	< 1000
